According to ChEMBL document CHEMBL5584354, “Impact of Conjugation of the Reactive Oxygen Species (ROS)-Generating Catalytic Moiety with Membrane-Active Antimicrobial Peptoids: Promoting Multitarget Mechanism and Enhancing Selectivity” (J Med Chem, 2024):
Values after ≈ are worked out from the molar mass of the structure shown. Active and inactive are the calls of the source. The rule behind the calls is not given here. Non-standard residues stand in square brackets, D forms with d. Residues, ends and D or L forms follow the SMILES beside them. Gly(N(CH2)2(3-indolyl)) = O=C(O)CNCCc1c[nH]c2ccccc12; Nspe = C[C@H](NCC(=O)O)c1ccccc1; Nlys = NCCCCNCC(=O)O

Tests used:
Escherichia coli [1] = assay: Antibacterial activity against colistin-resistant Escherichia coli NMS12 harboring extended-spectrum beta-lactamase assessed as inhibition of bacterial growth incubated for 24 hrs by broth dilution method; assay type: functional
RAW264.7 [2] = assay: Antiinflammatory activity in LPS-stimulated mouse RAW264.7 cells assessed as reduction in IL-1beta production at 10 uM incubated for 16 hrs by ELISA relative to control; assay type: functional; parameters: scale not given: the % may be the effect or the level left
HEK-Blue hTLR7 [3] = assay: Inhibition of TLR4-mediated inflammatory signaling in LPS-stimulated HEK-Blue […] cells assessed as reduction in SEAP activity at 10 uM preincubated for 1 hr followed by LPS stimulation and measured after 16 hrs by ELISA relative to control; assay type: cell-based; details: Homo sapiens, time 17.0 hrs
Klebsiella pneumoniae = assay: Antibacterial activity against carbapenem-resistant Klebsiella pneumoniae NMS118 harboring extended-spectrum beta-lactamase assessed as inhibition of bacterial growth incubated for 24 hrs by broth dilution method; assay type: functional
RAW264.7 [4] = assay: Cytotoxicity against mouse RAW264.7 cells assessed as cell killing incubated for 24 hrs by MTS assay; assay type: toxicity, cell-based; details: raw264.7, 24 h
DNA = assay: Binding affinity to pUC19 plasmid DNA (unknown origin) assessed as smearing and retardation of DNA bands at 25 uM incubated for 2 hrs by agarose gel imaging method; assay type: nucleic-acid assay
Escherichia coli [5] = assay: (§1) Antibacterial activity against Escherichia coli K1 infected in female ICR mouse model of septic shock assessed as creatinine level in serum at 5 mg/kg, ip pretreated for 1 hr followed by bacteria addition and further treated with 3 doses of compound every 4 hrs (reference value: 57.3%); assay type: functional; details: time 9 hrs
HEK-Blue hTLR7 [6] = assay: Inhibition of TLR4-mediated inflammatory signaling in LPS-stimulated HEK-Blue […] cells assessed as reduction in SEAP activity at 20 uM preincubated for 1 hr followed by LPS stimulation and measured after 16 hrs by ELISA relative to control; assay type: cell-based; details: Homo sapiens, time 17.0 hrs
Escherichia coli [7] = assay: as §1, with “reduction in IL-1beta” for “creatinine”, “by ELISA relative to control” for “(reference value: 57.3%)”; assay type: functional; parameters: scale not given: the % may be the effect or the level left; details: time 9 hrs
Streptococcus pneumoniae = assay: Antibacterial activity against catalase-negative Streptococcus pneumoniae KCMM42691 assessed as cell killing at 12.5 uM incubated for 4 to 16 hrs by CFU assay; assay type: functional, organism-based; details: time 4-16 hrs
Escherichia coli [8] = assay: (§2) Antibacterial activity against Escherichia coli K1 infected in female ICR mouse model of septic shock assessed as reduction in AST level in serum at 5 mg/kg, ip pretreated for 1 hr followed by bacteria addition and further treated with 3 doses of compound every 4 hrs relative to control; assay type: functional; parameters: scale not given: the % may be the effect or the level left; details: time 9 hrs
Escherichia coli [9] = assay: as §2, with “TNFalpha” for “AST”, “hrs by ELISA” for “hrs”; assay type: functional; parameters: scale not given: the % may be the effect or the level left; details: time 9 hrs
[10] = Acute toxicity in female ICR mouse assessed as animal survival at 5 mg/kg, ip administered four doses for 12 hrs; assay type: organism-based; details: in vivo
Escherichia coli [11] = assay: as §2, with “pulmonary congestion” for “AST level”, “lung” for “serum”, “by H and E staining based light microscopic analysis” for “relative to control”; assay type: functional, organism-based; details: time 9.0 hrs
Lipopolysaccharide (LPS) = assay: Binding affinity to Escherichia coli O111:B4 LPS at 0 to 25 uM BODIPY-TR-cadaverine substitution assay; assay type: subcellular; details: dose 0-25 µM
Cell membrane [12] = assay: Disruption of inner membrane in Escherichia coli ATCC 25922 assessed as increase in absorbance incubated for 1 hr by ONPG assay; assay type: cell membranes; details: dose 0-25 µM
Escherichia coli [13] = assay: Antibacterial activity against Escherichia coli K1 infected in female ICR mouse model of septic shock assessed as reduction in bacterial load in liver at 5 mg/kg, ip pretreated for 1 hr followed by bacteria addition and further treated with 3 doses of compound every 4 hrs; assay type: functional, organism-based; details: time 9.0 hrs
Escherichia coli [14] = assay: Antibacterial activity against carbapenem-resistant Escherichia coli NMS11035 harboring extended-spectrum beta-lactamase assessed as inhibition of bacterial growth incubated for 24 hrs by broth dilution method; assay type: functional
[15] = Toxicity in female ICR mouse infected with Escherichia coli K1 assessed as lung injury at 5 mg/kg, ip pretreated for 1 hr followed by bacteria addition and further treated with 3 doses of compound every 4 hrs; assay type: organism-based; details: in vivo, 9 h
Cell membrane [16] = assay: Disruption of outer membrane in Escherichia coli ATCC 25922 assessed as increase in absorbance measured every 5 mins for 90 mins by nitrocefin assay; assay type: cell membranes; details: dose 0-25 µM
[17] = Toxicity in female ICR mouse assessed as effect on ALT level in serum at 5 mg/kg, ip administered four doses for 12 hrs and measured 24 hrs post last dose; assay type: organism-based; details: in vivo, 36 h
[18] = Cytotoxicity against mouse RAW264.7 cells assessed as cell viability at 10 uM incubated for 24 hrs by […] relative to control; assay type: toxicity, cell-based; details: read-out: Activity
RAW264.7 [19] = assay: Antiinflammatory activity in LPS-stimulated mouse RAW264.7 cells assessed as reduction in IL-6 production at 10 uM incubated for 16 hrs by ELISA relative to control; assay type: functional; parameters: scale not given: the % may be the effect or the level left
RAW264.7 [20] = assay: Inhibition of LPS-induced NF-kappaB pathway in mouse RAW264.7 cells assessed as reduction in NF-kappaB nuclear translocation at 10 uM preincubated for 1 hr followed by LPS addition and measured after 1 hr by immunofluorescence staining based confocal microscopic analysis; assay type: cell-based; details: time 2.0 hrs
Erythrocyte = assay: Hemolytic activity in male Sprague-Dawley rat erythrocytes assessed as concentration required for 10% hemolysis incubated for 1 hr by absorbance based method; assay type: toxicity, cell-based
[21] = Toxicity in female ICR mouse assessed as dilatation of interstitial blood capillaries in kidney at 5 mg/kg, ip administered four doses for 12 hrs and measured 24 hrs post last dose by H and E staining based light microscopic analysis; assay type: organism-based; details: in vivo, 36 h

C[C@@H](c1ccccc1)N(CC(=O)N(CCCCN)CC(=O)N(CCc1c[nH]c2ccccc12)CC(=O)N(CCc1c[nH]c2ccccc12)CC(N)=O)C(=O)CN(CCCCN)C(=O)CN(CCCCN)C(=O)CN(C(=O)CN(C(=O)CN(CCCCN)C(=O)CN(C(=O)CN(C(=O)CN(CCCCN)C(=O)[C@H](Cc1c[nH]cn1)NC(=O)CNC(=O)CN)[C@@H](C)c1ccccc1)[C@@H](C)c1ccccc1)[C@@H](C)c1ccccc1)[C@@H](C)c1ccccc1 (H-GGH[Nlys][Nspe][Nspe][Nlys][Nspe][Nspe][Nlys][Nlys][Nspe][Nlys][Gly(N(CH2)2(3-indolyl))][Gly(N(CH2)2(3-indolyl))]-NH2)
MIC (Escherichia coli [1]): 12.5 µM (≈ 26.4 µg/mL) | Activity (RAW264.7 [2]): 36% | inhibition (HEK-Blue hTLR7 [3]): 49.7% | MIC (Klebsiella pneumoniae): > 25 µM | LC50 (RAW264.7 [4]): 39.6 µM | Activity (DNA): Active | Activity (Escherichia coli [5]): 32.8% | inhibition (HEK-Blue hTLR7 [6]): 84.3% | Activity (Escherichia coli [7]): 48.3% | Activity (Streptococcus pneumoniae): Active | Activity (Escherichia coli [8]): 32.7% | Activity (Escherichia coli [9]): 46.6% | Survival [10]: > 96 h | Activity (Escherichia coli [11]): Active | Activity (Lipopolysaccharide (LPS)): Active | Activity (Cell membrane [12]): Dose-Dependent Effect | Activity (Escherichia coli [13]): Active | MIC (Escherichia coli [14]): 12.5 µM (≈ 26.4 µg/mL) | Activity [15]: Non-Toxic | Activity (Cell membrane [16]): Dose-Dependent Effect | Activity [17]: Non-Toxic | viability at 24 h, 10 µM [18]: 94.5% | Activity (RAW264.7 [19]): 99.3% | inhibition (RAW264.7 [20]): Active | HC10 (Erythrocyte): > 100 µM | Activity [21]: Non-Toxic
